From patent US5405843A, “Quinoline derivatives” (Mitsui Toatsu Chemicals, Incorporated, priority 1988, dated 1995)

Key:
[1] = system: drug-resistant cancer cells; conditions: calcium antagonists such as verapamil; cited from earlier work
[2] = system: Adriamycin resistant strain 2780 AD cells of human ovarian cancer A2780 cells; test: Potentiating effect on incorporation of 3H-vincristine into adriamycin-resistant cancer cells; format: cell-based; conditions: Homo sapiens, 2780AD, 2 h, 20 nM 3H-vincristine, control = 100, read-out: 3H-vincristine accumulation
Procedure, shortened: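 Cells at 1×10^6/ml were grown 24 h, then incubated 2 h at 37 °C in RPMI-1640 with 20 nM ^3H-vincristine, 5% FCS and compound (solution at 1.0 or 10.0 μg/ml). After washing and lysis in 0.2N NaOH, cellular ^3H-vincristine was counted by scintillation.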

[3] = system: Adriamycin resistant strain K562/ADM cells of human myeloleukemia K562 cells; test: Potentiating effect on activity of vincristine against adriamycin-resistant cells (growth inhibition); format: cell-based; conditions: ratio to control IC50 655
Description: Potentiating Effect of the Compounds on Activity of Anticancer Drugs

[4] = system: Vincristine-resistant strain P388/VCR cells of mouse leukemia P388 cells; test: Potentiating effect on vincristine in mice having vincristine-resistant mouse leukemia (survival); format: in vivo, mouse (female CDFI mice); conditions: peritoneal, once a day for 5 days; for T/C (rate of life prolongation): control = 100
[5] = compound 3 mg/kg + vincristine 100 ug/kg
[6] = compound 10 mg/kg + vincristine 100 ug/kg
[7] = compound 30 mg/kg + vincristine 100 ug/kg

SMILES | prevention of discharge of anticancer drugs from cancer cells [1] | activity at 1 µg/mL ([2]; compound 1 μg/ml) [%] | activity at 10 µg/mL ([2]; compound 10 μg/ml) [%] | effect in potentiating vincristine activity, multiples of the control ([3]; compound 0.3 μg/ml) | effect in potentiating vincristine activity, multiples of the control ([3]; compound 1 μg/ml) | effect in potentiating vincristine activity, multiples of the control ([3]; compound 3 μg/ml) | Average surviving period [4, 5] [days] | T/C (rate of life prolongation) [4, 5] [%] | Average surviving period [4, 6] [days] | T/C (rate of life prolongation) [4, 6] [%] | Average surviving period [4, 7] [days] | T/C (rate of life prolongation) [4, 7] [%]
COc1ccc(CCN(C)CCCC(C#N)(c2ccc(OC)c(OC)c2)C(C)C)cc1OC (stereo not drawn) [verapamil] | prevent discharge of anticancer drugs from cancer cells | – | – | – | – | – | – | – | – | – | – | –
OC(COc1cccc2ncccc12)CN1CCN(C(c2ccccc2)c2ccccc2)CC1 (stereo not drawn) [Example 1, 5-[3-(4-Diphenylmethylpiperazine-1-yl)-2-hydroxypropoxy]quinoline] | – | 717 | 747 | 151.2 | 342.1 | 433.3 | 12.4 ± 0.2 | 111 | 12.2 ± 0.4 | 109 | 12.8 ± 0.4 | 114
